# Tested on: MV-4-11 cells
# Experiment: Gene expression microarray analysis (Affymetrix PrimeView) and GSEA
# Format: cell-based, human
# Parameters: RFU PODN (11730768_x_at) / Fold change /veh PODN (11730768_x_at) / RFU LINC00158 (11744669_a_at) / Fold change /veh LINC00158 (11744669_a_at) / RFU DUSP10 (11751237_a_at) / Fold change /veh DUSP10 (11751237_a_at) / RFU ID3 (11757404_x_at) / Fold change /veh ID3 (11757404_x_at) / RFU PLEKHG5 (11737974_s_at) / Fold change /veh PLEKHG5 (11737974_s_at) / RFU LRRC4B (11730491_at) / Fold change /veh LRRC4B (11730491_at) / RFU GIMAP4 (11747438_a_at) / Fold change /veh GIMAP4 (11747438_a_at) / RFU KRT8 (11758183_x_at) / Fold change /veh KRT8 (11758183_x_at) / RFU CNN1 (11734310_a_at) / Fold change /veh CNN1 (11734310_a_at) / RFU VPS37D (11726825_at) / Fold change /veh VPS37D (11726825_at) / RFU C10orf10 (11716522_x_at) / Fold change /veh C10orf10 (11716522_x_at) / RFU KIR2DL2 /// KIR2DL4 /// KIR2DL5A /// KIR2DL5B /// KIR2DS1 /// KIR2DS2 /// KIR2DS3 /// KIR2DS4 /// KIR3DL3 /// KIR3DL3 /// KIR3DS1 (11738374_at) / Fold change /veh KIR2DL2 /// KIR2DL4 /// KIR2DL5A /// KIR2DL5B /// KIR2DS1 /// KIR2DS2 /// KIR2DS3 /// KIR2DS4 /// KIR3DL3 /// KIR3DL3 /// KIR3DS1 (11738374_at) / RFU C1QL1 (11718748_at) / Fold change /veh C1QL1 (11718748_at) / RFU TMPRSS4 (11747572_a_at) / Fold change /veh TMPRSS4 (11747572_a_at) / RFU HAMP (11756126_x_at) / Fold change /veh HAMP (11756126_x_at) / RFU RNFT2 (11725882_a_at) / Fold change /veh RNFT2 (11725882_a_at) / RFU NR4A2 (11747474_a_at) / Fold change /veh NR4A2 (11747474_a_at) / RFU ABCC12 (11746883_a_at) / Fold change /veh ABCC12 (11746883_a_at) / RFU TMEM136 (11760407_x_at) / Fold change /veh TMEM136 (11760407_x_at) / RFU CLDN22 /// WWC2 (11732394_at) / Fold change /veh CLDN22 /// WWC2 (11732394_at) / RFU HLA-DPB1 (11760878_x_at) / Fold change /veh HLA-DPB1 (11760878_x_at) / RFU SPINT1 (11716480_a_at) / Fold change /veh SPINT1 (11716480_a_at) / RFU GAP43 (11754022_s_at) / Fold change /veh GAP43 (11754022_s_at) / RFU A4GNT (11735810_at) / Fold change /veh A4GNT (11735810_at) / RFU PRB3 (11715151_x_at) / Fold change /veh PRB3 (11715151_x_at) / RFU TUBB4B (11761932_at) / Fold change /veh TUBB4B (11761932_at) / RFU CAPN14 (11732068_a_at) / Fold change /veh CAPN14 (11732068_a_at) / RFU TMCC2 (11721928_a_at) / Fold change /veh TMCC2 (11721928_a_at) / RFU IRGQ (11745062_a_at) / Fold change /veh IRGQ (11745062_a_at) / RFU FAM174B (11720279_a_at) / Fold change /veh FAM174B (11720279_a_at) / RFU TMPRSS4 (11748680_a_at) / Fold change /veh TMPRSS4 (11748680_a_at) / RFU FAM212B (11763350_a_at) / Fold change /veh FAM212B (11763350_a_at) / RFU PLEKHG5 (11743358_a_at) / Fold change /veh PLEKHG5 (11743358_a_at) / RFU ZSCAN30 (11745921_a_at) / Fold change /veh ZSCAN30 (11745921_a_at) / RFU CMKLR1 (11741424_a_at) / Fold change /veh CMKLR1 (11741424_a_at) / RFU LOC101060620 /// MAPK8IP1 (11723275_at) / Fold change /veh LOC101060620 /// MAPK8IP1 (11723275_at) / RFU SPTSSB (11747773_x_at) / Fold change /veh SPTSSB (11747773_x_at) / RFU PRSS12 (11739890_at) / Fold change /veh PRSS12 (11739890_at) / RFU BIN1 (11741810_x_at) / Fold change /veh BIN1 (11741810_x_at) / RFU WNT11 (11732464_a_at) / Fold change /veh WNT11 (11732464_a_at) / RFU C10orf10 (11716521_a_at) / Fold change /veh C10orf10 (11716521_a_at) / RFU C5orf56 (11738089_at) / Fold change /veh C5orf56 (11738089_at) / RFU CYB561 (11721691_x_at) / Fold change /veh CYB561 (11721691_x_at) / RFU ANKRD19P (11752326_a_at) / Fold change /veh ANKRD19P (11752326_a_at) / RFU OR2T12 /// OR2T33 /// OR2T8 (11738714_s_at) / Fold change /veh OR2T12 /// OR2T33 /// OR2T8 (11738714_s_at) / RFU VCAN (11748164_a_at) / Fold change /veh VCAN (11748164_a_at) / RFU JSRP1 (11732532_at) / Fold change /veh JSRP1 (11732532_at) / RFU KRTAP10-11 (11738290_x_at) / Fold change /veh KRTAP10-11 (11738290_x_at) / RFU MYO3A (11730013_a_at) / Fold change /veh MYO3A (11730013_a_at) / RFU EBF3 (11725865_a_at) / Fold change /veh EBF3 (11725865_a_at) / RFU CAMK2N1 (11719241_x_at) / Fold change /veh CAMK2N1 (11719241_x_at) / RFU C5orf56 (11738088_a_at) / Fold change /veh C5orf56 (11738088_a_at) / RFU OLFML3 (11715873_a_at) / Fold change /veh OLFML3 (11715873_a_at) / RFU LOC100653217 /// NTM (11731650_a_at) / Fold change /veh LOC100653217 /// NTM (11731650_a_at) / RFU MAPK11 (11762145_a_at) / Fold change /veh MAPK11 (11762145_a_at) / RFU FIZ1 (11724087_x_at) / Fold change /veh FIZ1 (11724087_x_at) / RFU OASL (11726364_x_at) / Fold change /veh OASL (11726364_x_at) / RFU SOX15 (11748057_x_at) / Fold change /veh SOX15 (11748057_x_at) / RFU CD79A (11719716_a_at) / Fold change /veh CD79A (11719716_a_at) / RFU HIST1H1D (11736915_at) / Fold change /veh HIST1H1D (11736915_at) / RFU CASKIN2 (11723855_a_at) / Fold change /veh CASKIN2 (11723855_a_at) / RFU LOC730098 (11760151_x_at) / Fold change /veh LOC730098 (11760151_x_at) / RFU OR4N2 (11742367_at) / Fold change /veh OR4N2 (11742367_at) / RFU PRRT2 (11749266_a_at) / Fold change /veh PRRT2 (11749266_a_at) / RFU SNX32 (11753110_a_at) / Fold change /veh SNX32 (11753110_a_at) / RFU CDHR5 (11726645_a_at) / Fold change /veh CDHR5 (11726645_a_at) / RFU RCAN1 (11760418_a_at) / Fold change /veh RCAN1 (11760418_a_at) / RFU FAM167A (11723789_a_at) / Fold change /veh FAM167A (11723789_a_at) / RFU FAM26E (11764081_at) / Fold change /veh FAM26E (11764081_at) / RFU ISYNA1 (11749810_s_at) / Fold change /veh ISYNA1 (11749810_s_at) / RFU ACY1 (11761880_at) / Fold change /veh ACY1 (11761880_at) / RFU 11764098_at / Fold change /veh 11764098_at / RFU SAMD14 (11745864_x_at) / Fold change /veh SAMD14 (11745864_x_at) / RFU NPB (11741838_a_at) / Fold change /veh NPB (11741838_a_at) / RFU TMPRSS6 (11731388_a_at) / Fold change /veh TMPRSS6 (11731388_a_at) / RFU KRTAP10-2 (11738614_at) / Fold change /veh KRTAP10-2 (11738614_at) / RFU ARHGAP8 /// PRR5-ARHGAP8 (11727945_x_at) / Fold change /veh ARHGAP8 /// PRR5-ARHGAP8 (11727945_x_at) / RFU KRTAP5-7 /// NADSYN1 (11734609_at) / Fold change /veh KRTAP5-7 /// NADSYN1 (11734609_at) / RFU RASL12 (11751679_a_at) / Fold change /veh RASL12 (11751679_a_at) / RFU CDKN2B (11736163_a_at) / Fold change /veh CDKN2B (11736163_a_at) / RFU PRF1 (11729649_at) / Fold change /veh PRF1 (11729649_at) / RFU, ZNF638 /// ZNF638-IT1 / Fold change vs veh, ZNF638 /// ZNF638-IT1 / RFU, PANK3 / Fold change vs veh, PANK3 / RFU, SH3YL1 / Fold change vs veh, SH3YL1 / RFU, ZEB2 / Fold change vs veh, ZEB2 / RFU, NRIP1 / Fold change vs veh, NRIP1 / RFU, PTTG1IP / Fold change vs veh, PTTG1IP / RFU, CAPN2 / Fold change vs veh, CAPN2 / RFU, MED14 / Fold change vs veh, MED14 / RFU, SNORA58 / Fold change vs veh, SNORA58 / RFU, C1orf63 / Fold change vs veh, C1orf63 / RFU, LRRFIP1 / Fold change vs veh, LRRFIP1 / RFU, NDUFAF7 / Fold change vs veh, NDUFAF7 / RFU, SLC12A2 / Fold change vs veh, SLC12A2 / RFU, IBTK / Fold change vs veh, IBTK / RFU, ESF1 / Fold change vs veh, ESF1 / Fold change vs veh, TMEM50B / RFU, TAOK1 / Fold change vs veh, TAOK1 / RFU, ACBD3 / Fold change vs veh, ACBD3 / RFU, TMA16 / Fold change vs veh, TMA16 / RFU, RWDD3 / Fold change vs veh, RWDD3 / RFU, BCAT1 / Fold change vs veh, BCAT1 / RFU, EDEM3 / Fold change vs veh, EDEM3 / RFU, TMEM33 / Fold change vs veh, TMEM33 / RFU, WDR75 / Fold change vs veh, WDR75 / RFU, AHCTF1 / Fold change vs veh, AHCTF1 / RFU, TFRC / Fold change vs veh, TFRC / RFU, ZDHHC17 / Fold change vs veh, ZDHHC17 / RFU, NOM1 / Fold change vs veh, NOM1 / RFU, ARL8B / Fold change vs veh, ARL8B / RFU, ZBTB11 / Fold change vs veh, ZBTB11 / RFU, TAMM41 / Fold change vs veh, TAMM41 / RFU, KIAA1704 /// LOC100996395 / Fold change vs veh, KIAA1704 /// LOC100996395 / RFU, ING1 / Fold change vs veh, ING1 / RFU, TRMT61B / Fold change vs veh, TRMT61B / RFU, FUBP3 / Fold change vs veh, FUBP3 / RFU, TP53 / Fold change vs veh, TP53 / RFU, TNKS2 / Fold change vs veh, TNKS2 / RFU, ZFP14 / Fold change vs veh, ZFP14 / RFU, ACTR2 / Fold change vs veh, ACTR2 / RFU, PPP3R1 / Fold change vs veh, PPP3R1 / RFU, PIK3R1 / Fold change vs veh, PIK3R1 / RFU, HNRNPA1 / Fold change vs veh, HNRNPA1 / RFU, RNF170 / Fold change vs veh, RNF170 / RFU, ZNF28 / Fold change vs veh, ZNF28 / RFU, RNGTT / Fold change vs veh, RNGTT / RFU, OGT / Fold change vs veh, OGT / RFU, BRD1 / Fold change vs veh, BRD1 / RFU, MARS / Fold change vs veh, MARS / RFU, ZNF655 / Fold change vs veh, ZNF655 / RFU, FAHD1 / Fold change vs veh, FAHD1 / RFU, BDP1 / Fold change vs veh, BDP1 / RFU, LRRCC1 / Fold change vs veh, LRRCC1 / RFU, ARID1A / Fold change vs veh, ARID1A / RFU, ZNF146 / Fold change vs veh, ZNF146 / RFU, ZNF330 / Fold change vs veh, ZNF330 / RFU, GPN3 / Fold change vs veh, GPN3 / RFU, C9orf123 / Fold change vs veh, C9orf123 / RFU, N4BP2L2 / Fold change vs veh, N4BP2L2 / RFU, ARFIP1 / Fold change vs veh, ARFIP1 / RFU, FAM179B / Fold change vs veh, FAM179B / RFU, BCL10 / Fold change vs veh, BCL10 / RFU, UHRF1BP1L / Fold change vs veh, UHRF1BP1L / RFU, BET1 / Fold change vs veh, BET1 / RFU, CNOT2 / Fold change vs veh, CNOT2 / RFU, ZNF268 / Fold change vs veh, ZNF268 / Fold change vs veh, ZNF507 / RFU, DGCR2 / Fold change vs veh, DGCR2 / RFU, WDSUB1 / Fold change vs veh, WDSUB1 / Fold change vs veh, HSP90B1 /// MIR3652 / RFU, ADSS / Fold change vs veh, ADSS / RFU, GK / Fold change vs veh, GK / RFU, ZNF148 / Fold change vs veh, ZNF148 / RFU, TAF9 / Fold change vs veh, TAF9 / RFU, SLC1A5 / Fold change vs veh, SLC1A5 / RFU, SLMO2 / Fold change vs veh, SLMO2 / RFU, ABCC4 / Fold change vs veh, ABCC4 / RFU, LOC101060439 /// RAP1B / Fold change vs veh, LOC101060439 /// RAP1B / RFU, RFX7 / Fold change vs veh, RFX7 / RFU, GTPBP10 / Fold change vs veh, GTPBP10 / RFU, CNEP1R1 / Fold change vs veh, CNEP1R1 / RFU, BIVM-ERCC5 /// ERCC5 / Fold change vs veh, BIVM-ERCC5 /// ERCC5 / RFU, ILF3 / Fold change vs veh, ILF3 / RFU 11762660_at / Fold change /veh 11762660_at / RFU VCAN (11757783_s_at) / Fold change /veh VCAN (11757783_s_at) / RFU DDX43 (11728927_at) / Fold change /veh DDX43 (11728927_at) / RFU KRT8 (11758188_x_at) / Fold change /veh KRT8 (11758188_x_at) / RFU NKD1 (11759106_at) / Fold change /veh NKD1 (11759106_at) / RFU SRD5A1 (11742802_a_at) / Fold change /veh SRD5A1 (11742802_a_at) / RFU TPSAB1 /// TPSB2 (11721975_s_at) / Fold change /veh TPSAB1 /// TPSB2 (11721975_s_at) / RFU GSTM3 (11746129_a_at) / Fold change /veh GSTM3 (11746129_a_at) / RFU IL23R (11737362_x_at) / Fold change /veh IL23R (11737362_x_at) / RFU TMEM51 (11727254_a_at) / Fold change /veh TMEM51 (11727254_a_at) / RFU PIWIL2 (11732686_x_at) / Fold change /veh PIWIL2 (11732686_x_at) / RFU ORM1 (11744905_x_at) / Fold change /veh ORM1 (11744905_x_at) / RFU CCDC152 (11743942_at) / Fold change /veh CCDC152 (11743942_at) / RFU ECM1 (11717891_a_at) / Fold change /veh ECM1 (11717891_a_at) / RFU IL23R (11748794_a_at) / Fold change /veh IL23R (11748794_a_at) / RFU TNFAIP8L3 (11732012_x_at) / Fold change /veh TNFAIP8L3 (11732012_x_at) / RFU MBOAT4 (11741988_at) / Fold change /veh MBOAT4 (11741988_at) / RFU 11764193_at / Fold change /veh 11764193_at / RFU TMEM53 (11763286_at) / Fold change /veh TMEM53 (11763286_at) / RFU MAGEB2 (11727129_at) / Fold change /veh MAGEB2 (11727129_at) / RFU TMEM200A (11744735_a_at) / Fold change /veh TMEM200A (11744735_a_at) / RFU CCDC152 (11751479_a_at) / Fold change /veh CCDC152 (11751479_a_at) / RFU FAM211A (11726209_a_at) / Fold change /veh FAM211A (11726209_a_at) / RFU RGS16 (11746705_a_at) / Fold change /veh RGS16 (11746705_a_at) / RFU VCAN (11755009_s_at) / Fold change /veh VCAN (11755009_s_at) / RFU RHOB (11743442_s_at) / Fold change /veh RHOB (11743442_s_at) / RFU RGS16 (11720943_a_at) / Fold change /veh RGS16 (11720943_a_at) / RFU RGS16 (11720944_at) / Fold change /veh RGS16 (11720944_at) / RFU, VPS4B / Fold change vs veh, VPS4B / RFU, CREB1 / Fold change vs veh, CREB1 / RFU, DNAJC13 / Fold change vs veh, DNAJC13 / RFU, GNAQ / Fold change vs veh, GNAQ / RFU, CDK5R1 / Fold change vs veh, CDK5R1 / RFU, ZRANB3 / Fold change vs veh, ZRANB3 / RFU, CUL4A / Fold change vs veh, CUL4A / RFU, CCNY / Fold change vs veh, CCNY / RFU, UFL1 / Fold change vs veh, UFL1 / RFU, COG3 / Fold change vs veh, COG3 / RFU, DIAPH2 / Fold change vs veh, DIAPH2 / RFU, SKA2 / Fold change vs veh, SKA2 / RFU, AFF3 / Fold change vs veh, AFF3 / RFU, LMF1 / Fold change vs veh, LMF1 / RFU, IPO11 / Fold change vs veh, IPO11 / RFU, DFFB / Fold change vs veh, DFFB / RFU, FOXP1 / Fold change vs veh, FOXP1 / RFU, CARD8 / Fold change vs veh, CARD8 / RFU, STRN3 / Fold change vs veh, STRN3 / RFU, ADK / Fold change vs veh, ADK / RFU, RASSF2 / Fold change vs veh, RASSF2 / RFU, WIPF1 / Fold change vs veh, WIPF1 / RFU, LARP1B / Fold change vs veh, LARP1B / RFU, RASA1 / Fold change vs veh, RASA1 / RFU, RB1 / Fold change vs veh, RB1 / RFU, PPFIA1 / Fold change vs veh, PPFIA1 / RFU, MAT2A / Fold change vs veh, MAT2A / RFU, CCT5 / Fold change vs veh, CCT5 / RFU, WDR92 / Fold change vs veh, WDR92 / RFU, CUX1 / Fold change vs veh, CUX1 / RFU, TTC7A / Fold change vs veh, TTC7A / RFU, TMEM135 / Fold change vs veh, TMEM135 / RFU, DEPTOR / Fold change vs veh, DEPTOR / RFU, CPM / Fold change vs veh, CPM / RFU, DNAJB6 / Fold change vs veh, DNAJB6 / RFU, CACNA2D3 / Fold change vs veh, CACNA2D3 / RFU, DTX4 / Fold change vs veh, DTX4 / RFU, TFCP2 / Fold change vs veh, TFCP2 / RFU, GMCL1 /// GMCL1P1 / Fold change vs veh, GMCL1 /// GMCL1P1 / RFU, AEBP2 / Fold change vs veh, AEBP2 / RFU, SNHG1 /// SNORD22 /// SNORD25 /// SNORD26 /// SNORD27 /// SNORD28 /// SNORD29 /// SNORD31 / Fold change vs veh, SNHG1 /// SNORD22 /// SNORD25 /// SNORD26 /// SNORD27 /// SNORD28 /// SNORD29 /// SNORD31 / Fold change (Aza/veh), C12orf56 (ProbeSet 11735607_a_at) / Fold change (ACY-1035/veh), C12orf56 (ProbeSet 11735607_a_at) / Fold change (Aza/veh), FGFR1OP (ProbeSet 11751329_s_at) / Fold change (ACY-1035/veh), FGFR1OP (ProbeSet 11751329_s_at) / Fold change (Aza/veh), VPS36 (ProbeSet 11739960_a_at) / Fold change (ACY-1035/veh), VPS36 (ProbeSet 11739960_a_at) / RFU SYPL1 (11715823_x_at) / Fold change /veh SYPL1 (11715823_x_at) / RFU IGFBP7 (11715501_s_at) / Fold change /veh IGFBP7 (11715501_s_at) / RFU REEP3 (11722064_at) / Fold change /veh REEP3 (11722064_at) / RFU IGLL1 (11728026_x_at) / Fold change /veh IGLL1 (11728026_x_at): dose or concentration left out as unconfirmed
# Details: MV-4-11 cells, 48 hours
smiles,measurement,value
Nc1ccc(-c2cccs2)cc1NC(=O)c1ccc2c(c1)cc(C1CC1)n2CCN1CCOCC1 [ACY-1035],Fold change /veh CAPN14 (11732068_a_at),1.08

# Source: PMC5218480 (PLoS ONE, 2017)
